Results published in patent US10913738B2 (BRISTOL-MYERS SQUIBB COMPANY, priority 2017, dated 2021).
pIC50: −log10 of the molar value. Like-named read-outs stand apart in the source and are kept apart here.

How the values were obtained:
[1] = target: T1, His-GST-TVMV-hRIPK1(1-324) (Homo sapiens, UniProt Q13546); assay: RIPK1 HTRF Binding Assay
T1 construct: The coding region of human RIPK1(1-324) flanked by NdeI site at 5′ end; made in house; host or cells: Spodoptera frugiperda (Sf9) insect cells, baculovirus
T1 sequence (Q13546 1-324): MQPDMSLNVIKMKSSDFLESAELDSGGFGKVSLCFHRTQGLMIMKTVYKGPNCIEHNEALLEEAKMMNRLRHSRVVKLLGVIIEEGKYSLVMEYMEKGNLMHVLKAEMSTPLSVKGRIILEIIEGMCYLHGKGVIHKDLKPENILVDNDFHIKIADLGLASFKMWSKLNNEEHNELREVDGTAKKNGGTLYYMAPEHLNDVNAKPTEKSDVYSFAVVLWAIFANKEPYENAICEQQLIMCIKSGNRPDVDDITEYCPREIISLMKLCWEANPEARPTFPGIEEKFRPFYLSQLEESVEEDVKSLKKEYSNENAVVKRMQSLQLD
Protocol: The plate was incubated at rt for 1 h.
Cloning and Baculovirus Expression of RIPK1 Construct
Baculovirus was generated for the construct using the Bac-to-Bac baculovirus expression system (Invitrogen) according to the manufacturer's protocol. Briefly, recombinant bacmid was isolated from transformed DH10Bac E. coli competent cells (Invitrogen) and used to transfect Spodoptera frugiperda (Sf9) insect cells (Invitrogen). Baculovirus was harvested 72 hours post transfection and a virus stock was prepared by infecting fresh Sf9 cells at a 1/1000 (v/v) ratio for 66 hours.
The production was carried out either at a 10 L scale in a 22 L cellbag (GE Healthcare Bioscience, Pittsburgh, Pa.) or at a 20 L scale in a 50 L cellbag using WAVE-Bioreactor System 20/50 (GE Healthcare Bioscience). The infected cells were harvested by centrifugation at 2000 rpm for 20 min at 4° C. in a SORVALL® RC12BP centrifuge. The cell pellets was stored at −70° C. before protein was purified.
RIPK1 containing cell paste was resuspended in 50 mM Tris pH 7.5, 150 mM NaCl, 10 mM imidazole, 5% glycerol, 5 mM MgSO4, 1 mM TCEP, 25 U/ml Benzonase, and Complete Protease Inhibitor tablets (1/50 ml, Roche Diagnostics, Indianapolis, Ind.). […] The suspension was clarified by centrifugation at 136,000×g for 40 min, at 4° C. The lysate was decanted from the pellet and passed through a 5 ml NiNTA Superflow cartridge (Qiagen, Valencia, Calif.) using an AKTA Pure (GE Healthcare). Column was eluted with 10 CV linear gradient into 50 mM Tris 7.5, 150 mM NaCl, 500 mM imidazole, 5% glycerol, 1 mM TCEP. Peak fractions were pooled and loaded directly onto 5 ml GSTrap 4B column (GE Healthcare). Column was washed with 50 mM Tris 7.0, 150 mM NaCl, 5% glycerol, 1 mM DTT and eluted in 10 CV linear gradient into 50 mM Tris 8.0, 150 mM NaCl, 20 mM reduced glutathione, 5% glycerol, 1 mM DTT. Fractions identified by SDS-PAGE as containing RIPK1 were pooled and concentrated using 30 kDa MWCO spin concentrators (Amicon Ultra-15, Millipore, Billerica, Mass.) and loaded onto a HiLoad 26/600 Superdex 200 column (GE Healthcare) equilibrated in 25 mM Tris 7.5, 150 mM NaCl, 2 mM TCEP, 5% glycerol.
Protein was aliquoted and stored at −80° C.

[2] = system: MLKL phosphorylation in HT29-L23 human colorectal adenocarcinoma cells; assay: MLKL Phosphorylation High-Content Assay; type: cell-based; conditions: Homo sapiens
Protocol: MLKL Phosphorylation High-Content Assay
Following six hours incubation at 37° C. […] MLKL phosporylation was detected using anti-MLKL (phospho S358) antibody (Abcam #ab187091) (1:1000 dilution in Blocking Buffer [PBS supplemented with 0.1% BSA]) with overnight incubation at 4° C. […] Following another three cycles of washes in PBS, the microplates were sealed, and cellular images were acquired in the Cellomics ArrayScan VTI high-content imager equipped with an X1 camera. […] The image sets were analyzed using the Compartmental Analysis Bioapplication software (Cellomics). The level of MLKL phosphorylation was quantified as MEAN CircRingAvgIntenRatio. […] The data were fitted using the 4-parameter logistic equation to calculate the IC50 and Ymax values.

[3] = x marks IC50 class <20 nM, read-out: RIPK1 HTRF binding <20 nM
[4] = x marks IC50 class 20-200 nM, read-out: pMLKL cell activity 20-200 nM
[5] = x marks IC50 class 20-200 nM, read-out: RIPK1 HTRF binding 20-200 nM
[6] = x marks IC50 class >200 nM, read-out: pMLKL cell activity >200 nM
[7] = x marks IC50 class <20 nM, read-out: pMLKL cell activity <20 nM

| Structure (SMILES) | pIC50 [1, 3] | pIC50 [2, 4] | pIC50 [1, 5] | pIC50 [2, 6] | pIC50 [2, 7] |
| --- | --- | --- | --- | --- | --- |
| Cc1ncc(-c2ccn3nc(N)nc3c2)cc1C(=O)NCc1cc(F)cc(F)c1OCC(C)C [Example 301, 5-(2-amino-[1,2,4]triazolo[1,5-a]pyridin-7-yl)-N-(3,5-difluoro-2-isobutoxybenzyl)-2-methylnicotinamide] | > 7.70 | 6.70 to 7.70 | – | – | – |
| COc1nc(C)c(-c2ccn3nc(N)nc3c2)cc1C(=O)NCc1cccnc1OCC1CCCC1 [Example 8, 5-{2-Amino-[1,2,4]triazolo[1,5-a]pyridin-7-yl}-N-{[2-(cyclopentylmethoxy)pyridin-3-yl]methyl}-2-methoxy-6-methylpyridine-3-carboxamide] | > 7.70 | 6.70 to 7.70 | – | – | – |
| Cc1nc(C)c(-c2ccn3nc(N)nc3c2)cc1C(=O)NCC(O)COc1ccccc1 (stereo not drawn) [Example 172, 5-{2-amino-[1,2,4]triazolo[1,5-a]pyridin-7-yl}-N-(2-hydroxy-3-phenoxypropyl)-2,6-dimethylpyridine-3-carboxamide] | > 7.70 | 6.70 to 7.70 | – | – | – |
| Cc1ncc(-c2ccn3nc(N)nc3c2)cc1C(=O)NCCc1cccc(OC(F)(F)F)c1 [Example 227, 5-{2-amino-[1,2,4]triazolo[1,5-a]pyridin-7-yl}-2-methyl-N-{2-[3-(trifluoromethoxy)phenyl]ethyl}pyridine-3-carboxamide] | – | – | 6.70 to 7.70 | < 6.70 | – |
| COc1ncc(-c2ccn3nc(N)nc3c2)cc1C(=O)NCc1cc(C(F)(F)F)ccc1Cl [Example 161, 5-{2-amino-[1,2,4]triazolo[1,5-a]pyridin-7-yl}-N-{[2-chloro-5-(trifluoromethyl)phenyl]methyl}-2-methoxypyridine-3-carboxamide] | > 7.70 | 6.70 to 7.70 | – | – | – |
| CNc1cn2nc(-c3cnc(OC)c(C(=O)N[C@@H](C)c4cc(OC(F)(F)F)ccc4F)c3)ccc2n1 [Example 374, (S)—N-(1-(2-fluoro-5-(trifluoromethoxy)phenyl)ethyl)-2-methoxy-5-(2-(methylamino)imidazo[1,2-b]pyridazin-6-yl)nicotinamide] | > 7.70 | 6.70 to 7.70 | – | – | – |
| CCc1ncc(-c2ccn3nc(N)nc3c2)cc1C(=O)NCc1cc(C(F)(F)F)ccc1F [Example 322, 5-(2-amino-[1,2,4]triazolo[1,5-a]pyridin-7-yl)-2-ethyl-N-(2-fluoro-5-(trifluoromethyl)benzyl)nicotinamide] | – | 6.70 to 7.70 | 6.70 to 7.70 | – | – |
| Cc1ncc(-c2ccn3nc(N)nc3c2)cc1C(=O)NCc1cc(OC(F)(F)F)ccc1F [Example 229, 5-{2-amino-[1,2,4]triazolo[1,5-a]pyridin-7-yl}-N-{[2-fluoro-5-(trifluoromethoxy)phenyl]methyl}-2-methylpyridine-3-carboxamide] | > 7.70 | 6.70 to 7.70 | – | – | – |
| COc1ncc(-c2ccn3nc(N)nc3c2)cc1C(=O)NCc1cc(F)cc(F)c1OC1CC(C)OC(C)C1 (stereo not drawn) [Example 362, 5-(2-amino-[1,2,4]triazolo[1,5-a]pyridin-7-yl)-N-(2-((2,6-dimethyltetrahydro-2H-pyran-4-yl)oxy)-3,5-difluorobenzyl)-2-methoxynicotinamide] | – | 6.70 to 7.70 | 6.70 to 7.70 | – | – |
| Cc1ccc(-c2ccn3nc(N)nc3c2)nc1C(=O)NCC[C@@H](O)c1ccc(Cl)cc1 [Example 402, (R)-6-(2-amino-[1,2,4]triazolo[1,5-a]pyridin-7-yl)-N-(3-(4-chlorophenyl)-3-hydroxypropyl)-3-methylpicolinamide] | – | 6.70 to 7.70 | 6.70 to 7.70 | – | – |
| [2H]C([2H])([2H])N(Cc1cc(OC(F)(F)F)ccc1F)C(=O)c1cc(-c2ccn3nc(N)nc3c2)cnc1OC [Example 367, 5-(2-amino-[1,2,4]triazolo[1,5-a]pyridin-7-yl)-N-(2-fluoro-5-(trifluoromethoxy)benzyl)-2-methoxy-N-(methyl-d3)nicotinamide] | > 7.70 | – | – | – | > 7.70 |
| [2H]C([2H])(Oc1c(F)cc(F)cc1CNC(=O)c1cc(-c2ccn3nc(N)nc3c2)c(C)nc1C)C1CC1 [Example 287, 5-(2-amino-[1,2,4]triazolo[1,5-a]pyridin-7-yl)-N-(2-(cyclopropylmethoxy-d2)-3,5-difluorobenzyl)-2,6-dimethylnicotinamide] | > 7.70 | – | – | – | > 7.70 |
| Nc1nc2cc(-c3cnc(C4CC4)c(C(=O)NCc4cccc(OC(F)(F)F)c4)c3)ccn2n1 [Example 19, 5-{2-Amino-[1,2,4]triazolo[1,5-a]pyridin-7-yl}-2-cyclopropyl-N-{[3-(trifluoromethoxy)phenyl]methyl}pyridine-3-carboxamide] | – | 6.70 to 7.70 | 6.70 to 7.70 | – | – |
| [2H]C([2H])([2H])Oc1nc(C)c(-c2ccn3nc(N)nc3c2)cc1C(=O)NC(C)c1ccccc1OC(F)(F)F (single isomer, unassigned) [Example 98-2, 5-{2-amino-[1,2,4]triazolo[1,5-a]pyridin-7-yl}-2-(deutero)methoxy-6-methyl-N-{1-[2-(trifluoromethoxy)phenyl]ethyl}pyridine-3-carboxamide] | > 7.70 | – | – | – | > 7.70 |
| COc1nc(C)c(-c2ccn3nc(N)nc3c2)cc1C(=O)NCc1ccccc1OCC1CC(F)(F)C1 [Example 4, 5-{2-Amino-[1,2,4]triazolo[1,5-a]pyridin-7-yl}-N-({2-[(3,3-difluorocyclobutyl)methoxy]phenyl}methyl)-2-methoxy-6-methylpyridine-3-carboxamide] | > 7.70 | 6.70 to 7.70 | – | – | – |
| Cc1ncc(-c2ccn3nc(N)nc3c2)cc1C(=O)NCc1cc(F)ccc1OC1CCCC1 [Example 242, 5-{2-amino-[1,2,4]triazolo[1,5-a]pyridin-7-yl}-N-{[2-(cyclopentyloxy)-5-fluorophenyl]methyl}-2-methylpyridine-3-carboxamide] | > 7.70 | – | – | – | > 7.70 |
| COc1ncc(-c2ccn3nc(N)nc3c2)cc1C(=O)NCc1cccc(F)c1C(=O)N1CCC(F)(F)C1 [Example 378, 5-(2-amino-[1,2,4]triazolo[1,5-a]pyridin-7-yl)-N-(2-(3,3-difluoropyrrolidine-1-carbonyl)-3-fluorobenzyl)-2-methoxynicotinamide] | – | 6.70 to 7.70 | – | – | – |
| COc1ncc(-c2ccn3nc(N)nc3c2)cc1NC(=O)c1cnn(Cc2ccccc2)c1 [Example 413, N-(5-(2-amino-[1,2,4]triazolo[1,5-a]pyridin-7-yl)-2-methoxypyridin-3-yl)-1-benzyl-1H-pyrazole-4-carboxamide] | – | – | – | < 6.70 | – |
| COc1ncc(-c2ccn3nc(N)nc3c2)cc1C(=O)NC(C)CCc1ccccc1 (stereo not drawn) [Example 101, 5-{2-amino-[1,2,4]triazolo[1,5-a]pyridin-7-yl}-2-methoxy-N-(4-phenylbutan-2-yl)pyridine-3-carboxamide] | – | 6.70 to 7.70 | – | – | – |
| Nc1nc2cc(-c3cnc(Cl)c(C(=O)NCc4cc(C(F)(F)F)ccc4F)c3)ccn2n1 [Example 170, 5-{2-amino-[1,2,4]triazolo[1,5-a]pyridin-7-y1}-2-chloro-N-{[2-fluoro-5-(trifluoromethyl)phenyl]methyl}pyridine-3-carboxamide] | – | 6.70 to 7.70 | – | – | – |
